Experimental data as given in paper PMC10945555, “Improving Activity of New Arylurea Agents against Multidrug-Resistant and Biofilm-Producing Staphylococcus epidermidis” (ACS Medicinal Chemistry Letters, 2024).
≈ marks a conversion by molar mass, not a printed value. Read-outs that look alike come from different tables or passages of the source.

Assays:
Assay type in all cases: cell-based
[1] = system: Staphylococcus epidermidis ATCC 12228; test: MIC, broth microdilution, MSSE reference strain; details: ATCC12228, Staphylococcus epidermidis ATCC 12228, read-out: MIC MSSE
Description: These strains included susceptible, multidrug-resistant, and biofilm-producing strains of S. epidermidis and S. aureus (MSSE, MDR/BPSE, and MDR/BPSA, respectively). The cornerstone antibiotic linezolid served as a positive control (Table 1). The impact of structural modifications at the aryloxy fragment and the aromatic moiety bound to the propyl linker on the inhibitory activity was initially investigated. […] Further optimization focused on evaluating the impact of the type of substituent and its position on the arylsulfonamide fragment’s activity.
2 Biological assay protocols
Microbiological tests were carried out under aseptic conditions in a laminar chamber of the 2nd […]
(BioTectum 1.2, Alchem Poland). The assessment of antimicrobial activity was carried out for final compounds in the form of free bases, soluble in DMSO (Merck, Germany), at the initial […]
concentration of 1 mg/mL. […]
were provided by Cayman Chemical, USA.
The activity of all newly synthesized compounds was tested in vitro on a panel of selected reference strains from the American Type Culture Collection (ATCC) of Gram-positive […]
2.2 Effect of evaluated compounds on planktonic cells
The susceptibility of three reference bacterial strains (Staphylococcus epidermidis ATCC […]
Table S1) and 81 clinical MDR S. epidermidis (Table S2) to the tested compounds was assessed by determining the MIC value (Minimal Inhibitory Concentration) by microdilution in a liquid medium in 96-well flat-bottom cell culture plates (Nest Biotechnology Scientific, USA). The antibacterial properties of the compo unds were tested in the concentration range from 50 µg/mL to 0.1 µg/mL by making a series of double dilutions of the compound in liquid Mueller -Hinton II Broth Cation Adjusted (MHB II, BBL TM, USA) according to the European Committee on […]
Antimicrobial Susceptibility Testing guidelines (EUCAST).2,3 The determinations were performed twice. The MIC50 and MIC90 values were determined for each of the tested

[2] = system: clinical MDR Staphylococcus epidermidis isolates; test: MIC, broth microdilution, 81 clinical MDR strains; details: Staphylococcus epidermidis
Procedure, shortened: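 MICs were determined by twofold broth microdilution in cation-adjusted Mueller-Hinton II broth per EUCAST, over 50–0.1 µg/mL, in duplicate. Compounds were tested as free bases dissolved in DMSO; MIC50 and MIC90 were derived across the 81 clinical MDR S. epidermidis strains.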

[3] = system: Staphylococcus aureus ATCC BAA-976; test: MIC, broth microdilution, MDR/BPSA reference strain; details: ATCCBAA976; Staphylococcus aureus ATCC BAA-976; read-out: MIC MDR/BPSA
Procedure, shortened: (§1)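 Compounds tested as free bases dissolved in DMSO (1 mg/mL stock); determinations done twice; linezolid as positive control.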

[4] = system: Staphylococcus epidermidis ATCC 35984; test: MIC, broth microdilution, MDR/BPSE reference strain
Procedure, shortened: as §1

O=S(=O)(NC1CCN(CCC(Oc2ccc(C(F)(F)F)cc2)c2ccccc2)CC1)c1cccc(Cl)c1 (stereo not shown) [Compound 12]
MIC [1]: ≤ 6.25 µg/mL
MIC ([2]; clinical strain 1 (Table S2), read-out: MIC): 0.2 µg/mL (≈ 0.362 µM)
MIC ([2]; clinical strain 2 (Table S2), read-out: MIC): 1.6 µg/mL (≈ 2.89 µM)
MIC ([2]; clinical strain 3 (Table S2), read-out: MIC): 0.8 µg/mL (≈ 1.45 µM)
MIC ([2]; clinical strain 4 (Table S2), read-out: MIC): 0.8 µg/mL (≈ 1.45 µM)
MIC ([2]; clinical strain 5 (Table S2), read-out: MIC): 1.6 µg/mL (≈ 2.89 µM)
MIC ([2]; clinical strain 6 (Table S2), read-out: MIC): 3.12 µg/mL (≈ 5.65 µM)
MIC ([2]; clinical strain 7 (Table S2), read-out: MIC): 6.25 µg/mL (≈ 11.3 µM)
MIC ([2]; clinical strain 8 (Table S2), read-out: MIC): 1.6 µg/mL (≈ 2.89 µM)
MIC ([2]; clinical strain 9 (Table S2), read-out: MIC): 3.12 µg/mL (≈ 5.65 µM)
MIC ([2]; clinical strain 10 (Table S2), read-out: MIC): 6.25 µg/mL (≈ 11.3 µM)
MIC ([2]; clinical strain 11 (Table S2), read-out: MIC): 6.25 µg/mL (≈ 11.3 µM)
MIC ([2]; clinical strain 12 (Table S2), read-out: MIC): 6.25 µg/mL (≈ 11.3 µM)
MIC ([2]; clinical strain 13 (Table S2), read-out: MIC): 6.25 µg/mL (≈ 11.3 µM)
MIC ([2]; clinical strain 14 (Table S2), read-out: MIC): 50 µg/mL (≈ 90.4 µM)
MIC ([2]; clinical strain 15 (Table S2), read-out: MIC): 3.12 µg/mL (≈ 5.65 µM)
MIC ([2]; clinical strain 16 (Table S2), read-out: MIC): 3.12 µg/mL (≈ 5.65 µM)
MIC ([2]; clinical strain 17 (Table S2), read-out: MIC): 3.12 µg/mL (≈ 5.65 µM)
MIC ([2]; clinical strain 18 (Table S2), read-out: MIC): 3.12 µg/mL (≈ 5.65 µM)
MIC ([2]; clinical strain 19 (Table S2), read-out: MIC): 3.12 µg/mL (≈ 5.65 µM)
MIC ([2]; clinical strain 20 (Table S2), read-out: MIC): 6.25 µg/mL (≈ 11.3 µM)
MIC ([2]; clinical strain 21 (Table S2), read-out: MIC): 6.25 µg/mL (≈ 11.3 µM)
MIC ([2]; clinical strain 22 (Table S2), read-out: MIC): 12.5 µg/mL (≈ 22.6 µM)
MIC ([2]; clinical strain 23 (Table S2), read-out: MIC): 12.5 µg/mL (≈ 22.6 µM)
MIC ([2]; clinical strain 24 (Table S2), read-out: MIC): 12.5 µg/mL (≈ 22.6 µM)
MIC ([2]; clinical strain 25 (Table S2), read-out: MIC): 12.5 µg/mL (≈ 22.6 µM)
MIC ([2]; clinical strain 26 (Table S2), read-out: MIC): 12.5 µg/mL (≈ 22.6 µM)
MIC ([2]; clinical strain 27 (Table S2), read-out: MIC): 25 µg/mL (≈ 45.2 µM)
MIC ([2]; clinical strain 28 (Table S2), read-out: MIC): 12.5 µg/mL (≈ 22.6 µM)
MIC ([2]; clinical strain 29 (Table S2), read-out: MIC): 12.5 µg/mL (≈ 22.6 µM)
MIC ([2]; clinical strain 30 (Table S2), read-out: MIC): 25 µg/mL (≈ 45.2 µM)
MIC ([2]; clinical strain 31 (Table S2), read-out: MIC): 50 µg/mL (≈ 90.4 µM)
MIC ([2]; clinical strain 32 (Table S2), read-out: MIC): 50 µg/mL (≈ 90.4 µM)
MIC ([2]; clinical strain 33 (Table S2), read-out: MIC): 25 µg/mL (≈ 45.2 µM)
MIC ([2]; clinical strain 34 (Table S2), read-out: MIC): 50 µg/mL (≈ 90.4 µM)
MIC ([2]; clinical strain 35 (Table S2), read-out: MIC): 50 µg/mL (≈ 90.4 µM)
MIC ([2]; clinical strain 36 (Table S2), read-out: MIC): 50 µg/mL (≈ 90.4 µM)
MIC ([2]; clinical strain 37 (Table S2), read-out: MIC): 50 µg/mL (≈ 90.4 µM)
MIC ([2]; clinical strain 38 (Table S2), read-out: MIC): 50 µg/mL (≈ 90.4 µM)
MIC ([2]; clinical strain 39 (Table S2), read-out: MIC): 50 µg/mL (≈ 90.4 µM)
MIC ([2]; clinical strain 40 (Table S2), read-out: MIC): 50 µg/mL (≈ 90.4 µM)
MIC ([2]; clinical strain 41 (Table S2), read-out: MIC): 12.5 µg/mL (≈ 22.6 µM)
MIC ([2]; clinical strain 42 (Table S2), read-out: MIC): 50 µg/mL (≈ 90.4 µM)
MIC ([2]; clinical strain 43 (Table S2), read-out: MIC): 25 µg/mL (≈ 45.2 µM)
MIC ([2]; clinical strain 44 (Table S2), read-out: MIC): 50 µg/mL (≈ 90.4 µM)
MIC ([2]; clinical strain 45 (Table S2), read-out: MIC): 50 µg/mL (≈ 90.4 µM)
MIC ([2]; clinical strain 46 (Table S2), read-out: MIC): 50 µg/mL (≈ 90.4 µM)
MIC ([2]; clinical strain 47 (Table S2), read-out: MIC): 50 µg/mL (≈ 90.4 µM)
MIC ([2]; clinical strain 48 (Table S2), read-out: MIC): 3.12 µg/mL (≈ 5.65 µM)
MIC ([2]; clinical strain 49 (Table S2), read-out: MIC): 0.1 µg/mL (≈ 0.181 µM)
MIC ([2]; clinical strain 50 (Table S2), read-out: MIC): 50 µg/mL (≈ 90.4 µM)
MIC ([2]; clinical strain 51 (Table S2), read-out: MIC): 50 µg/mL (≈ 90.4 µM)
MIC ([2]; clinical strain 52 (Table S2), read-out: MIC): 3.12 µg/mL (≈ 5.65 µM)
MIC ([2]; clinical strain 53 (Table S2), read-out: MIC): 6.25 µg/mL (≈ 11.3 µM)
MIC ([2]; clinical strain 54 (Table S2), read-out: MIC): 50 µg/mL (≈ 90.4 µM)
MIC ([2]; clinical strain 55 (Table S2), read-out: MIC): 6.25 µg/mL (≈ 11.3 µM)
MIC ([2]; clinical strain 56 (Table S2), read-out: MIC): 3.12 µg/mL (≈ 5.65 µM)
MIC ([2]; clinical strain 57 (Table S2), read-out: MIC): 50 µg/mL (≈ 90.4 µM)
MIC ([2]; clinical strain 58 (Table S2), read-out: MIC): 3.12 µg/mL (≈ 5.65 µM)
MIC ([2]; clinical strain 59 (Table S2), read-out: MIC): 50 µg/mL (≈ 90.4 µM)
MIC ([2]; clinical strain 60 (Table S2), read-out: MIC): 3.12 µg/mL (≈ 5.65 µM)
MIC ([2]; clinical strain 61 (Table S2), read-out: MIC): 50 µg/mL (≈ 90.4 µM)
MIC ([2]; clinical strain 62 (Table S2), read-out: MIC): 6.25 µg/mL (≈ 11.3 µM)
MIC ([2]; clinical strain 63 (Table S2), read-out: MIC): 1.6 µg/mL (≈ 2.89 µM)
MIC ([2]; clinical strain 64 (Table S2), read-out: MIC): 3.12 µg/mL (≈ 5.65 µM)
MIC ([2]; clinical strain 65 (Table S2), read-out: MIC): 3.12 µg/mL (≈ 5.65 µM)
MIC ([2]; clinical strain 66 (Table S2), read-out: MIC): 50 µg/mL (≈ 90.4 µM)
MIC ([2]; clinical strain 67 (Table S2), read-out: MIC): 50 µg/mL (≈ 90.4 µM)
MIC ([2]; clinical strain 68 (Table S2), read-out: MIC): 50 µg/mL (≈ 90.4 µM)
MIC ([2]; clinical strain 69 (Table S2), read-out: MIC): 1.6 µg/mL (≈ 2.89 µM)
MIC ([2]; clinical strain 70 (Table S2), read-out: MIC): 50 µg/mL (≈ 90.4 µM)
MIC ([2]; clinical strain 71 (Table S2), read-out: MIC): 50 µg/mL (≈ 90.4 µM)
MIC ([2]; clinical strain 72 (Table S2), read-out: MIC): 3.12 µg/mL (≈ 5.65 µM)
MIC ([2]; clinical strain 73 (Table S2), read-out: MIC): 0.8 µg/mL (≈ 1.45 µM)
MIC ([2]; clinical strain 74 (Table S2), read-out: MIC): 50 µg/mL (≈ 90.4 µM)
MIC ([2]; clinical strain 75 (Table S2), read-out: MIC): 6.25 µg/mL (≈ 11.3 µM)
MIC ([2]; clinical strain 76 (Table S2), read-out: MIC): 0.8 µg/mL (≈ 1.45 µM)
MIC ([2]; clinical strain 77 (Table S2), read-out: MIC): 3.12 µg/mL (≈ 5.65 µM)
MIC ([2]; clinical strain 78 (Table S2), read-out: MIC): 6.25 µg/mL (≈ 11.3 µM)
MIC ([2]; clinical strain 79 (Table S2), read-out: MIC): 3.12 µg/mL (≈ 5.65 µM)
MIC ([2]; clinical strain 80 (Table S2), read-out: MIC): 12.5 µg/mL (≈ 22.6 µM)
MIC ([2]; clinical strain 81 (Table S2), read-out: MIC): 6.25 µg/mL (≈ 11.3 µM)
MIC ([2]; mean of MIC values against clinical MDR-SE isolates, read-out: mean MIC): 20.4 µg/mL (≈ 36.9 µM)
MIC50 ([2]; 81 clinical strains, concentration inhibiting growth of 50% clinical isolates): 6.25 µg/mL (≈ 11.3 µM)
MIC90 ([2]; 81 clinical strains, concentration inhibiting growth of 90% of clinical isolates): 50 µg/mL (≈ 90.4 µM)
MIC [3]: 50 µg/mL (≈ 90.4 µM)
increase of activity against MDR/BPSE compared to hit I [4]: up to 8 fold
MIC ([4]; Staphylococcus epidermidis, ATCC35984, read-out: MIC MDR/BPSE, Staphylococcus epidermidis ATCC 35984): ≤ 0.8 µg/mL
